The source of these data is ChEMBL document CHEMBL1132887, “Syntheses and biological evaluation of novel 2alpha-substituted 1alpha,25-dihydroxyvitamin D3 analogues” (2000).

Structures are written as SMILES.

What all share (parameters): reference not given here
For test [1], the system named is HL-60. In words: Compound was evaluated for HL-60 cell differentiation which was assessed in terms of expression of antigen CD11b. It counts as functional, Homo sapiens.
The species entered for test [2] is Rattus norvegicus. Description: Compound was evaluated for calcium mobilizing activity in rat serum. Type of test: functional.
Test [3] addresses T1, Vitamin D3 receptor (Bos taurus) (UniProt Q28037).
T1 sequence (whole entry): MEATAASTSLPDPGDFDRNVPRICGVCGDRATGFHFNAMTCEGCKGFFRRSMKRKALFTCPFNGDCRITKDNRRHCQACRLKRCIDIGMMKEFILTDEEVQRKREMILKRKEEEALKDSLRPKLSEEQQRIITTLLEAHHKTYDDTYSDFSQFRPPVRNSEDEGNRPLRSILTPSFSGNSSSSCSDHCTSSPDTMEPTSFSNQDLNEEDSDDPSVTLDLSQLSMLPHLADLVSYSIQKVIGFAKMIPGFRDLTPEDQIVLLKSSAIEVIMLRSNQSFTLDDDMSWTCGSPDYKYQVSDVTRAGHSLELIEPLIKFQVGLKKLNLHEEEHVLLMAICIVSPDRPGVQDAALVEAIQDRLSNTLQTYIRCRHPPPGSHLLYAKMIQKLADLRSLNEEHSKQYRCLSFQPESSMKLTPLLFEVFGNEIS
In words: Binding affinity for bovine thymus vitamin D receptor (VDR).

Test [4] deals with T2, Vitamin D-binding protein (Rattus norvegicus) (UniProt P04276).
T2 sequence (whole entry): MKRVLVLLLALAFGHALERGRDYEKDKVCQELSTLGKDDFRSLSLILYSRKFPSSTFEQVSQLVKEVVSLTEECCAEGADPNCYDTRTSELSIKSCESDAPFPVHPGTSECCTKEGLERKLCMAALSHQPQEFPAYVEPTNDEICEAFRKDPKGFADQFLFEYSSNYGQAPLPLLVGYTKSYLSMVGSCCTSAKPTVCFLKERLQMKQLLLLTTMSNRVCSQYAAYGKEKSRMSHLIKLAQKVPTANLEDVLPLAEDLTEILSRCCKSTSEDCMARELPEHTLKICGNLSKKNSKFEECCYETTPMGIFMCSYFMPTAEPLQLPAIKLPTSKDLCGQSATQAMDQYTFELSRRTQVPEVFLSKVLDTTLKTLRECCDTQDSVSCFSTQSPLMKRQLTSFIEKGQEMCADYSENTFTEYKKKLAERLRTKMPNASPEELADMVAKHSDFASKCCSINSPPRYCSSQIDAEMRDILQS
Description: Compound was tested for binding affinity against rat serum DBP (vitamin D binding protein). Type of test: cell-free.

Take `C=C1/C(=C\C=C2/CCC[C@]3(C)[C@@H]([C@H](C)CCCC(C)(C)O)CC[C@@H]23)C[C@@H](O)C[C@@H]1O` [CALCITRIOL]: the Activity in test [1], in test [2], in test [3] and in test [4] was 100 each time.

Consider `C=C1/C(=C\C=C2/CCC[C@]3(C)[C@@H]([C@H](C)CCCC(C)(C)O)CC[C@@H]23)C[C@@H](O)[C@H](CC)[C@@H]1O`, for which the Activity was 106 in test [1], 68 in test [2], 40 in test [3] and 48 in test [4].

In the case of `C=C1/C(=C\C=C2/CCC[C@]3(C)[C@@H]([C@H](C)CCCC(C)(C)O)CC[C@@H]23)C[C@@H](O)[C@H](CCO)[C@@H]1O`, the Activity came out at 86 in test [1], 372 in test [2], 70 in test [3] and 74 in test [4].

Regarding `C=C1/C(=C\C=C2/CCC[C@]3(C)[C@@H]([C@H](C)CCCC(C)(C)O)CC[C@@H]23)C[C@@H](O)[C@H](C)[C@@H]1O`, the Activity came out at 444 in test [1], 658 in test [2], 400 in test [3] and 44 in test [4].

With `C=C1/C(=C\C=C2/CCC[C@]3(C)[C@@H]([C@H](C)CCCC(C)(C)O)CC[C@@H]23)C[C@@H](O)[C@H](CCCO)[C@@H]1O`, the Activity in test [1] was found to be 240; in test [2] it was 50866; in test [3] it was 300; in test [4], 362.

In the case of `C=C1/C(=C\C=C2/CCC[C@]3(C)[C@@H]([C@H](C)CCCC(C)(C)O)CC[C@@H]23)C[C@@H](O)[C@H](CO)[C@@H]1O`, the Activity came out at 10 in test [1], 124 in test [2], 20 in test [3] and 95 in test [4].

Regarding `C=C1/C(=C\C=C2/CCC[C@]3(C)[C@@H]([C@H](C)CCCC(C)(C)O)CC[C@@H]23)C[C@@H](O)[C@H](CCC)[C@@H]1O`, the Activity in test [1] came to 44; in test [2], 636; in test [3], 20; in test [4], 21.
